Assays:
C. parvum [1] = system: C. parvum; design: method as in Funkhouser-Jones et al., 2020; conditions: ref Funkhouser-Jones et al., 2020; cited from earlier work
Cryptosporidium = conditions: cited from earlier work
HCT-8 cells = assay: CytoTox 96 Non-Radioactive Cytotoxicity Assay; format: cell-based, Human
Method: (§1) HCT-8 cell lines (Human ileocecal adenocarcinoma) were purchased from The European Collection of Authenticated Cell Cultures (ECACC) under catalogue number No 90032006) and maintained with regular subculturing in a growth medium consisting in a RPMI 1640 medium supplemented with 1 mM sodium pyruvate, 2 mM l-glutamine, 10 % (vol/vol) of heat-inactivated fetal calf serum, 100 U/mL of penicillin and 100 μg/mL of streptomycin. Cells were grown in an incubator at 37 °C with 5 % (vol/vol) CO2 until monolayers reached 80–90 % confluency. Cells were cultivated in 96-well format plate for molecular analysis and in Lab-Tek™ Chamber Slides for microscopic analysis. 50,000 cells were seeded and incubated during 24 h (until confluency) before infection.
(§2) The compounds (2 mg/mL in DMSO) were diluted to 500 μM and serially diluted in maintenance medium. The cytotoxicity of the compounds was assessed using the CytoTox 96® Non-Radioactive Cytotoxicity Assay (Promega, G1790) in accordance with the manufacturer's protocol.
(§3) An initial screening experiment was conducted on the full library to evaluate the cytotoxicity effects on HCT-8 cells. Nitrophenylurea 12 was identified as being cytotoxic so was not progressed further (See Supporting Information). In total, 21 candidates were assessed for their ability to inhibit C. parvum replication at a concentration of 10 μM. Each compound was added at the start of the infection of HCT-8 cells (T0) and remained in the culture for 48 h post infection (hpi). Parasitic quantification was then performed using a molecular method (qPCR). Of the 21 compounds tested, nine were effective inhibitors, reducing parasite proliferation by 80 % or more (Fig. 6). A clear trend emerged with all of the benzyl-substituted ureas 6–10 displaying poor inhibitory activity, regardless of the attached heteroaryl substituent. […] Two exceptions to this were imidazole-containing analogues 18 and 19. […] Among the squaramide series, the results were highly dependent on the nature of the substituent, ranging from high (e.g. ketone 29, furan 32), medium (e.g. 3-pyrazole 30) to low (e.g. 4-pyrazole 31) anti-cryptosporidial activity.

C. parvum [2] = assay: Inhibition of C. parvum replication in infected HCT-8 cells, parasite quantification by qPCR; format: cell-based, Cryptosporidium parvum (Iowa strain) in human HCT-8 cells; conditions: qPCR
Method: as §1
(§4) C. parvum oocysts of “Iowa” strain was purchased from Waterborne Inc. and stored in PBS at 4 °C. A ratio of one oocyst per cell was used to infect HCT-8 cell. Oocysts suspension was incubated with 10 % of a solution (vol/vol) containing 0.5 % sodium hypochlorite for 10 min at 4 °C. After a washing step by centrifugation at 1800g for 15 min at 4 °C, oocysts were incubated in acidified water (pH 2.4) containing 0.025 % (wt/vol) of trypsin, at 37 °C for 20 min, to trigger excystation (infectivity assay developed by [Keegan et al., 2003]). After a third centrifugation step at 1800 g for 10 min, oocysts were suspended in a maintenance medium. The maintenance medium consisted of RPMI 1640 medium with 2 mM l-glutamine, 5 mM glucose, 0.5 μM folic acid, 7 μM 4-amino-benzoic acid, 0.1 μM calcium pantothenate, 50 nM ascorbic acid, 2 % (vol/vol) heat inactivated fetal calf serum and 100 U/mL of streptomycin/penicillin. Before oocyst inoculation, the growth medium was switched with maintenance medium. Triggered oocysts were finally added on monolayers and incubated during 48 h at 37 °C in a 5 % (vol/vol) CO2 atmosphere.
as §2
The COWP gene (GenBank no. AF248743) was amplified by qPCR following the previously described protocol ([Guy et al., 2003]), and the parasitic concentration was determined using the standard range of C. parvum oocyst concentrations. Briefly, serial dilutions from a pure C. parvum oocyst suspension were made starting from a stock solution of 5 × 10^7 oocysts (4 × 10^5 – 2 × 10^5 – 1 × 10^5 – […]–2.5 × 10^3–1.25 × 10^3 oocysts) and the standard curve for quantifying parasites was created to obtain a correlation between Cq values and the Log of concentration.
At the end of the experiment, supernatants from the C. parvum-infected cell cultures were collected. The cell layers were then washed (1x PBS), detached using trypsin (0.25 %), and centrifuged (10,000×g, 10 min). The resulting cell pellet was re-suspended in 150–200 μL of sterile 1x PBS and stored at −20 °C for later DNA extraction. DNA extraction of C. parvum was performed using the Purelink™ Microbiome Purification Kit (Invitrogen™) following the manufacturer's protocol “Transport Media and Microbial Culture Samples” ([Invitrogen, 2015]).
FRePCR reactions were formulated to a volume of 25 μL and comprised of 1.25 μL of primers (10 μM), 0.05 μL probe (100 μM), 12.5 μL Master Mix 2X, LightCycler 480 Probes Master (ref. 04707494001, Roche), 4.95 μL H2O nuclease-free and 5 μL of DNA template. Quantitative PCR was run on a CFX96 real time PCR system (BioRad) with an initial step of activation (10 min 95 °C) following by 40 cycles with cycling conditions as follows: 95 °C for 10 s, 60 °C for 1 min. BioRad CFX manager software was used to analyse the data. Samples were considered negative if Cq ≥ 40.
A common way of defining a 50 % response is to use a mathematical model like the 4-parameter logistic model (4 PL) ([Sebaugh, 2011]). […]

C. parvum [3] = assay: Quantification of C. parvum development in HCT-8 cells by immunofluorescence microscopy; format: cell-based, Cryptosporidium parvum (Iowa strain) in human HCT-8 cells; conditions: for reduction in parasite quantification: 7.5 μM
Method: as §1, §4
After aspiration of the supernatant from the Nunc™ Lab-Tek™ Chamber slide wells, cells were rinsed with PBS 1X. A fixation step was then performed using methanol during 8 min at 4 °C. Cryptosporidium developmental forms were labelled with a polyclonal IgG antibodies reaction kit tagged with Cy3 (Sporo-Glo™, Waterborne Inc.) and oocysts were labelled with FL-Crypt-a-Glo™, a fluorescein-labelled mouse monoclonal antibody made to oocyst outer wall antigenic sites (epitopes) of C. parvum. Antibodies were 1/20th diluted and incubated on cells for 1 h at room temperature. DNA was labelled with Hoechst for 5 min at room temperature. Slides were then coverslipped with a no fading mounting medium (Waterborne Inc.) and observed with a Leica DMi8 microscope. Each dilution was performed in triplicate and, for each well, ten images were taken at 400× magnification. Parasite quantification was carried out automatically using the StarDist neural network, which was specifically trained to detect and quantify C. parvum parasites.
To confirm our initial findings, we employed an alternative method using immunofluorescence microscopy to quantify C. parvum development in the presence of inhibitors (Fig. S1). […] The results corroborated our initial screening data, confirming the high efficacy of all tested chloronitrophenyl urea analogues, except for imidazole derivatives 18 and 19.
To test this hypothesis, increasing concentrations of squaramide 32 (i.e. 0, 2, 4 and 8 μM) were applied at different infection times: at 0 hpi (hours post infection), to assess the impact on parasite invasion; at 4 hpi, to examine the effect on the early stages of intracellular development; and at 30 hpi, to evaluate the influence on late stage intracellular development. The microscopic images in Fig. 7 illustrate the effect of 32 when applied at the onset of infection and at 30 hpi. Using fluorescent antibodies, the intracellular development of C. parvum is highlighted by green fluorescence, which allows for quantification of the number of parasites per image.

[4] = CytoTox 96 Non-Radioactive Cytotoxicity Assay; format: cell-based, Human; conditions: human; HCT-8 cells, 10 µM
Method: as §1, §2, §3

Structure (SMILES): COc1ccc(NC(=O)N2CCCCN3[C@H](CN(C)C)[C@H](c4ccc(C#Cc5ccccc5)cc4)[C@@H]3C2)cc1 [BRD7929]
- stage-specific effect on C. parvum development (in words) (C. parvum [1]): blocks nuclear division and arrest development at the trophozoite

Structure (SMILES): CC(=O)Oc1ccccc1C(=O)Nc1ncc([N+](=O)[O-])s1 [nitazoxanide]
- efficacy in immunocompromised patients (in words) (Cryptosporidium; even when administered in high doses, ref Rossignol et al., 1998): ineffective
- efficacy in children (in words) (Cryptosporidium; ref Amadi et al., 2002): limited

Structure (SMILES): CC(C)(Nc1c(Nc2ccc(Cl)c([N+](=O)[O-])c2)c(=O)c1=O)c1cccc(-c2ccco2)c1 [Compound 32, (2-((4-Chloro-3-nitrophenyl)amino)-3-((2-(3-(furan-2-yl)phenyl)propan-2-yl)amino)-4-oxocyclobut-2-en-1-ylidene)oxonium]
- Viability (HCT-8 cells; 10 µM): 94.94%
- anti-cryptosporidial activity (in words) (C. parvum [2]; 10 μM, added at T0, 48 hpi): high
- inhibition rate of C. parvum replication (C. parvum [2]; 10 μM, added at start of infection (T0), 48 hpi, mean ± SD (n = 3 wells)): 87.2 ± 0.8%
- IC50 (C. parvum [2]; compounds at 0, 3, 6 and 9 μM added at t0 and left until 48 hpi, read-out: IC50): 2200 nM
- effect on intracellular development (green fluorescence) (C. parvum [3]; 2 μM, applied at onset of infection (0 hpi)): significantly reduces green fluorescence
- effect on distribution of parasite area (C. parvum [3]; 7.5 μM or 15 μM, added at 30 hpi until 48 hpi): decreases the prevalence of both small and large parasites
- reduction in parasite quantification (C. parvum [3]; added at 0 hpi, fluorescence microscopy): > 80%
- reduction in parasite quantification (C. parvum [3]; added at 30 hpi, until 48 hpi, fluorescence microscopy): 46%
- reduction of parasite load (C. parvum [3]; 8 μM, added at 30 hpi, 18 h of treatment, fluorescence microscopy): < 50%

Structure (SMILES): CNC(=O)c1ccc(-c2cnc3cnc(C(=O)N(C)c4ccc(Cl)cc4)cn23)cc1 [KDU691]
- stage-specific effect on C. parvum development (in words) (C. parvum [1]): effective at later stages

Structure (SMILES): CC(C)(NC(=O)Nc1ccc(Cl)c([N+](=O)[O-])c1)c1cccc(-c2cccc([N+](=O)[O-])c2)c1 [Compound 12, 1-(4-chloro-3-nitrophenyl)-3-(2-(3′-nitro-[1,1′-biphenyl]-3-yl)propan-2-yl)urea]
- cytotoxicity (in words) (HCT-8 cells; initial screening): cytotoxic
- viability at 10 µM [4]: 58%
